According to US11166942B2 (PRAXIS BIOTECH LLC, priority 2018, dated 2021):
Where two headings read alike, the source gives them in different places.

Legend:
ATF4 = ATF4 expression inhibition assay (immunoblot, Tg-stressed HEK293T cells); format: cell-based, human; details: 100 nM Tg, 3 hours, 0.1 nM to 10 μM compound (FIG. 6)
Method: HEK293T cells were maintained at 37° C. and 5% CO2 in Dulbecco's Modified Eagle's Media (DMEM) supplemented with 10% fetal bovine serum (FBS), 2 mM L-glutamine, 100 U/ml penicillin, and 100 μg/ml streptomycin. After reaching 80% of confluence, cells were detached and seeded on 6 well plates in complete media, allowed to recover overnight and treated for 3 hours with 100 nM thapsigargin (Tg) in the presence of various concentrations ranging from 0.1 nM to 10 μM. Cells without treatment (Veh) or cells treated with Tg alone were used as controls.
After 3 hours of treatment with Tg and the test compound, cells were lysed with SDS-PAGE lysis buffer. Lysates were transferred to 1.5 ml tubes and sonicated for 3 min, and total protein amounts were quantified using BCA Protein Assay Kit (Pierce). Equal amount of proteins was loaded on SDS-PAGE gels. Proteins were transferred onto […] PVDF membranes (BioRad) and probed with primary antibodies diluted in Tris-buffered saline supplemented with 0.1% Tween 20 and 3% bovine serum albumin.
ATF4 (11815) antibody (Cell Signaling Technologies) and β-actin (Sigma-Aldrich) antibodies were used as primary antibodies. […]

[1] = tested on: Chinese hamster ovary (CHO) cells; assay: Protein translation assay (puromycin labelling, CHO cells); format: cell-based; details: Cricetulus griseus, CHO, media alone = 100%
Summary of the method: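 CHO cells given compound 2 h at 1 μM (unstressed), or 1 h at 100 nM or 1 μM then co-treated with 300 nM Tg (stressed); 10 μg/ml puromycin pulse 30 min, anti-puromycin western blot with β-actin, densitometry. Normalized to media alone (100%) and, for stressed cells, Tg alone (0%).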

MEF cells = assay: Frontotemporal dementia cellular model (progranulin knockdown in MEF cells); format: cell-based; details: PGRN siRNA mix, 1 μM or 5 μM, 48 hours (FIG. 13)
Method: MEF cells were maintained at 37° C. and 5% CO2 in DMEM supplemented with 10% fetal bovine serum (FBS), 2 mM L-glutamine, 100 U/ml penicillin, and 100 μg/ml streptomycin. After reaching 80% of confluence, cells were detached and seeded on 6-well plates in complete media at a density of 3×10^5 cells/well and allowed to recover for 48 h. To perform a knockdown expression of the progranulin protein, cells were then washed three times with PBS and treated with small interference RNA (siRNA) mix, that target progranulin (PGRN) gene (Qiagen FlexiTube siRNA mix, Cat No 1027416), according to manufacturer instructions.
Transfection media with siRNA mix was supplemented with OPTIMEM medium alone (GRN7) or 1 μM or 5 μM compound 58 in OPTIMEM medium. Transfection media without siRNA mix (Veh) and cells cultured in OPTIMEM medium alone (Unt) were used as controls.
After 48 hours treatment, culture media were removed and cells were lysed with SDS-PAGE lysis buffer. Lysates were transferred to 1.5 ml tubes and sonicated for 3 min. Total protein amount was quantified using BCA Protein Assay Kit (Pierce). Equal amount of proteins (30 μg) was loaded on SDS-PAGE gels. […]
PGRN (R&D Systems) and β-actin (Sigma-Aldrich) antibodies were used as primary antibodies. […] Quantification of protein bands was done by densitometry using ImageJ software. […]

In the case of `O=C(NN1CCN(C[C@@H](O)COc2ccc(Cl)c(F)c2)CC1)c1ccc2cc(Cl)ccc2n1` [Compound 58, (R)-6-chloro-N-(4-(3-(4-chloro-3-fluorophenoxy)-2-hydroxypropyl)piperazin-1-yl)quinoline-2-carboxamide], the “ATF4 expression under Tg stress (immunoblot)” value (ATF4) is reported as “inhibits the expression of ATF4 under Tg treatment in a dose dependent manner”, the activity at 1 µM ([1]; 2 h, unstressed CHO cells, 1 μM, 2 hours, read-out: % Protein synthesis in unstressed cells (1 μM test compound)) is reported as 164% and the activity at 1 µM ([1]; CHO cells stressed with 300 nM Tg, 1 μM compound, Tg alone = 0%, read-out: % Recovery of protein expression (1 μM test compound)) is reported as 118%. For the same molecule, the “expression of PGRN (progranulin) in siRNA knockdown condition” value (MEF cells) was “increased expression of progranulin”.
